# Legend:
# Type in all cases: biochemical
# SIK1 = SIK1 (Homo sapiens, UniProt P57059); assay: Enzymatic activity assay SIK1, RapidFire mass spectrometry (phosphorylation of CHK-peptide); conditions: RapidFire MS, inhibition of SIK1; read-out: SIK1 RF IC50
# How it was run: (§1)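 Human SIK1/2/3, 5/0.5/1.5 nM; 12.5 mM HEPES pH 7.0, 10 mM Mg acetate, 0.005% BSA. 30 min cpd pre-inc, + CHK-peptide (10 μM soln) + ATP (100 μM soln), 45 min RT. Formic acid stop; RF-MS phospho ratio; IC50.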
# SIK2 = SIK2 (Homo sapiens, UniProt Q9H0K1); assay: Enzymatic activity assay SIK2, RapidFire mass spectrometry (phosphorylation of CHK-peptide); conditions: RapidFire MS, inhibition of SIK2; read-out: SIK2 RF IC50
# How it was run: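 Read-out is the summed phospho-species fraction of CHK-peptide by RapidFire mass spectrometry, normalized between DMSO and 1 μM YKL-05-099. The reaction used 0.5 nM SIK2, 100 μM ATP and 10 μM peptide solutions in HEPES pH 7.0/10 mM magnesium acetate for 45 min at ambient temperature.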
# SIK3 = SIK3 (Homo sapiens, UniProt Q9Y2K2); assay: Enzymatic activity assay SIK3, RapidFire mass spectrometry (phosphorylation of CHK-peptide); conditions: RapidFire MS, inhibition of SIK3; read-out: SIK3 RF IC50
# How it was run: as §1
# Sequence of SIK2 (Q9H0K1 whole entry): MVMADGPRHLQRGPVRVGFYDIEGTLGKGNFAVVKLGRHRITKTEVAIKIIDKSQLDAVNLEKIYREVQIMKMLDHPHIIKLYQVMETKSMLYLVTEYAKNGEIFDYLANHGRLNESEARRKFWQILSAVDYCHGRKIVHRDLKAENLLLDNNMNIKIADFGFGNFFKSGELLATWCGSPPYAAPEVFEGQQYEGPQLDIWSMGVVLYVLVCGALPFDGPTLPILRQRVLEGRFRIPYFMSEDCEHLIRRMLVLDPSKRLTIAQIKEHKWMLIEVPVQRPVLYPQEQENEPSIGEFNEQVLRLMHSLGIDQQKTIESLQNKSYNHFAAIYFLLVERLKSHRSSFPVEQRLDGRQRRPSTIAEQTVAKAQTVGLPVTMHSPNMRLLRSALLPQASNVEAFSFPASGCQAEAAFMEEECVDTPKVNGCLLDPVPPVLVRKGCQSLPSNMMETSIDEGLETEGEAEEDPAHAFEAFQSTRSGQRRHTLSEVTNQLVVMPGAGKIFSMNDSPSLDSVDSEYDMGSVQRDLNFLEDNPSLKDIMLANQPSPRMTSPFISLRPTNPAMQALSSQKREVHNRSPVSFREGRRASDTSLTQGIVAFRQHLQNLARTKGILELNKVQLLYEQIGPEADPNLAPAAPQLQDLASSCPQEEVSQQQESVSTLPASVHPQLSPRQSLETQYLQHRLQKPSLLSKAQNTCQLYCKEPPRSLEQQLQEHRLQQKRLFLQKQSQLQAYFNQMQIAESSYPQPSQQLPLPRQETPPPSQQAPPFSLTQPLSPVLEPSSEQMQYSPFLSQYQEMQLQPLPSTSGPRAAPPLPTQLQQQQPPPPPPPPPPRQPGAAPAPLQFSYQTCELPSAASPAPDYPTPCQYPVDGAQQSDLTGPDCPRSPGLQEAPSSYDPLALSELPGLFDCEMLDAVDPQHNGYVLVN
# Sequence of SIK1 (P57059 whole entry): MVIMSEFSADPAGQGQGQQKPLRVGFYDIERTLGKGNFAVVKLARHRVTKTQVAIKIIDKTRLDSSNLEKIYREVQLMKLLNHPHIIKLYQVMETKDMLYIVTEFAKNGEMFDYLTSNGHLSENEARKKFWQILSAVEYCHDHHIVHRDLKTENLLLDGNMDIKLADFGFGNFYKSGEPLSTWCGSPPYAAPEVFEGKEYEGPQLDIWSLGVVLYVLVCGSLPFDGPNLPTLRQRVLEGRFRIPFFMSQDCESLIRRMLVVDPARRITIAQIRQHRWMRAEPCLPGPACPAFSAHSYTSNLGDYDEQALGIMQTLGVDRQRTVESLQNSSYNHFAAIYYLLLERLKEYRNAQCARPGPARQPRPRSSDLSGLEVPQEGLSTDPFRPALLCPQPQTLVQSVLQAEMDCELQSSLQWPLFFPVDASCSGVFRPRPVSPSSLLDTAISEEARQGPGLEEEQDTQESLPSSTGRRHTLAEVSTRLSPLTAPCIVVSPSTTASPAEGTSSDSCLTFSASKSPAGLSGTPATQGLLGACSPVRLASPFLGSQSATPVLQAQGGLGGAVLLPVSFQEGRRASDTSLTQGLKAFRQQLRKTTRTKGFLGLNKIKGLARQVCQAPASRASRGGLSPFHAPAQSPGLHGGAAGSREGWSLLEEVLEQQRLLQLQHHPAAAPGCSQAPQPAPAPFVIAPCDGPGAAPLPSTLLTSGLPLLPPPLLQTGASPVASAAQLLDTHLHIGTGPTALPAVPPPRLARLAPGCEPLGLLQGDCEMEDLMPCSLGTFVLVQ
# Sequence of SIK3 (Q9Y2K2 whole entry): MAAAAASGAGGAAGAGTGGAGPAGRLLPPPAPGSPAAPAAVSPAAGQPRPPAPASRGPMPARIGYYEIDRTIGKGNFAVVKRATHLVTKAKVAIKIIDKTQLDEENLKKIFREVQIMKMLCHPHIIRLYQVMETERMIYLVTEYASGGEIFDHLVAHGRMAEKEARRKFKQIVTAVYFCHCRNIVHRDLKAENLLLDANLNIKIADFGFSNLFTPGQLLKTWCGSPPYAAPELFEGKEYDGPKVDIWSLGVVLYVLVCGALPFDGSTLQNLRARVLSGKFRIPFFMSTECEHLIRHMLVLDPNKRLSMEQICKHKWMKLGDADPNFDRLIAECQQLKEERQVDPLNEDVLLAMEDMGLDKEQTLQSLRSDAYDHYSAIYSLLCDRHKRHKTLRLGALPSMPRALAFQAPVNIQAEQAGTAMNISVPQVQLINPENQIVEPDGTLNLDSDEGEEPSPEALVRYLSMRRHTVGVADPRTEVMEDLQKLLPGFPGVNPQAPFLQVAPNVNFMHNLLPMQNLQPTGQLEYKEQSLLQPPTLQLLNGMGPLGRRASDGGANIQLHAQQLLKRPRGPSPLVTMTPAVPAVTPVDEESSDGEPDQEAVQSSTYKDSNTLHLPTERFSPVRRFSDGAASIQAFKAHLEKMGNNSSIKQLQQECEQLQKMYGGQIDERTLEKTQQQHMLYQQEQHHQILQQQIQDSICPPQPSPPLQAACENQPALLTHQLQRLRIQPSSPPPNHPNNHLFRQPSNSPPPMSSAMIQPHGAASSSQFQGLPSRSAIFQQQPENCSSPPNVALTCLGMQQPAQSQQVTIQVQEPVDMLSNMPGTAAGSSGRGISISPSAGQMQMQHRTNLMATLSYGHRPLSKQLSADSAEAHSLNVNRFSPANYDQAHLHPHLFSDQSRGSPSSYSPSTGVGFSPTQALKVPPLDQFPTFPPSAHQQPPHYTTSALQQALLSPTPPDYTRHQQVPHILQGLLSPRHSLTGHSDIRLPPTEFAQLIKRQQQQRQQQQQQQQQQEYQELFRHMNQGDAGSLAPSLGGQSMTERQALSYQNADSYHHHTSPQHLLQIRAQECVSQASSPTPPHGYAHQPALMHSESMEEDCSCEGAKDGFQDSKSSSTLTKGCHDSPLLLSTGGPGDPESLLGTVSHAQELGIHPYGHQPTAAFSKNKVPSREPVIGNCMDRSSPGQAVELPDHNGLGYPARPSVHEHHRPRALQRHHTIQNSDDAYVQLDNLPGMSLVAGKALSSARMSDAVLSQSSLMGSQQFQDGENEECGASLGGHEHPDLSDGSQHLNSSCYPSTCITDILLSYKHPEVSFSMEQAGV
Compound,IC50 (SIK1) [nM],IC50 (SIK2) [nM],IC50 (SIK3) [nM]
"Cc1cc(C#N)nn1-c1nc(-n2cnc3cc(F)c(N[C@@H]4CNC[C@@H]4F)cc32)ccc1C(C)O (stereo in doubt) [Example 188, 1-[6-[5-fluoro-6-[[(3R,4S)-4-fluoropyrrolidin-3-yl]amino]benzimidazol-1-yl]-3-(1-hydroxyethyl)pyridin-2-yl]-5-methylpyrazole-3-carbonitrile]",87,70,213
"COc1cc2ncn(-c3ccc(CO)c(-c4cccc(Cl)c4)n3)c2cc1OC [Example 1, (2-(3-chlorophenyl)-6-(5,6-dimethoxy-1H-benzo[d]imidazol-1-yl)pyridin-3-yl)methanol]",152,105,358
"Cc1cc(C#N)nn1-c1nc(-n2cnc3cc(N4CCN(C5COC5)CC4)ccc32)ccc1C(C)O (stereo not drawn) [Example 67, 1-[3-(1-Hydroxyethyl)-6-[5-[4-(oxetan-3-yl)piperazin-1-yl]benzimidazol-1-yl]-2-pyridyl]-5-methyl-pyrazole-3-carbonitrile]",767,132,97.9
"Cc1ccc(Nc2ccc3c(c2)ncn3-c2ccc(C(C)O)c(-c3ccc(O)cc3C#N)n2)nn1 (stereo not drawn) [Example 220, 5-Hydroxy-2-[3-(1-hydroxyethyl)-6-[5-[(6-methylpyridazin-3-yl)amino]benzimidazol-1-yl]-2-pyridyl]benzonitrile; formic acid]",6740,154,46.2
"Cc1cc(C#N)nn1-c1nc(-n2cnc3cc(Nc4cnn(C5CNC5)c4)ccc32)ccc1C(C)O (stereo not drawn) [Example 72, 1-[6-[5-[[1-(Azetidin-3-yl)pyrazol-4-yl]amino]benzimidazol-1-yl]-3-(1-hydroxyethyl)-2-pyridyl]-5-methyl-pyrazole-3-carbonitrile]",5,1,2.1
"Cc1ccc(Nc2ccc3ncn(-c4ccc(C(C)O)c(-n5nc(C#N)c6c5CCN(C)C6)n4)c3c2)nn1 (stereo not drawn) [Example 291, 1-[3-(1-hydroxyethyl)-6-[6-[(6-methylpyridazin-3-yl)amino]benzimidazol-1-yl]-2-pyridyl]-5-methyl-6,7-dihydro-4~{H}-pyrazolo[4,3-c]pyridine-3-carbonitrile]",1,1.2,11.9
"Cc1ccc(Nc2ccc3c(c2)ncn3-c2ccc([C@@H](C)O)c(-n3nc(C(F)F)cc3C(F)F)n2)nn1 [Example 288, (1R)-1-[2-[3,5-bis(difluoromethyl)pyrazol-1-yl]-6-[5-[(6-methylpyridazin-3-yl)amino]benzimidazol-1-yl]-3-pyridyl]ethanol]",1600,13.2,5.8
"Cc1ccc(Nc2ccc3c(c2)ncn3-c2ccc(C(C)O)c(-c3c(C#N)cnn3C)n2)nn1 (stereo not drawn) [Example 76, 5-[3-(1-Hydroxyethyl)-6-[5-[(6-methylpyridazin-3-yl)amino]benzimidazol-1-yl]-2-pyridyl]-1-methyl-pyrazole-4-carbonitrile]",7390,327,66.2
"COc1cc(C(F)F)nn1-c1nc(-n2cnc3ccc(Nc4ccc(C)nn4)cc32)ccc1C(C)O (stereo not drawn) [Example 397, 1-[2-[3-(difluoromethyl)-5-methoxy-pyrazol-1-yl]-6-[6-[(6-methylpyridazin-3-yl)amino]benzimidazol-1-yl]-3-pyridyl]ethanol]",37,20.5,172
"Cc1ccc(Nc2ccc3c(c2)ncn3-c2ccc(C(C)O)c(-n3ccc(C#N)n3)n2)nn1 (stereo not drawn) [Example 115, 1-[3-(1-Hydroxyethyl)-6-[5-[(6-methylpyridazin-3-yl)amino]benzimidazol-1-yl]-2-pyridyl]pyrazole-3-carbonitrile]",283,3.9,0.7
"COc1cc(Cl)nnc1Nc1ccc2c(c1)ncn2-c1ccc(C(C)O)c(-n2nc(C#N)cc2C)n1 (stereo not drawn) [Example 241, 1-[6-[5-[(6-Chloro-4-methoxy-pyridazin-3-yl)amino]benzimidazol-1-yl]-3-(1-hydroxyethyl)-2-pyridyl]-5-methyl-pyrazole-3-carbonitrile]",173,1.8,0.9
"Cc1ccc(-c2ccc3ncn(-c4ccc(C(C)O)c(-n5nc(C#N)cc5C)n4)c3c2)nn1 (stereo not drawn) [Example 339, 1-[3-(1-hydroxyethyl)-6-[6-(6-methylpyridazin-3-yl)benzimidazol-1-yl]-2-pyridyl]-5-methyl-pyrazole-3-carbonitrile]",32,29.7,301
"Cc1cc(OC(F)F)nn1-c1nc(-n2cnc3cc(Nc4ccc(C(F)F)nn4)ccc32)ccc1C(C)O (stereo not drawn) [Example 367, 1-[2-[3-(difluoromethoxy)-5-methylpyrazol-1-yl]-6-[5-[[6-(difluoromethyl)pyridazin-3-yl]amino]benzimidazol-1-yl]pyridin-3-yl]ethanol]",88,1.5,0.8
"Cc1cc(C#N)nn1-c1nc(-n2cnc3cc(F)c(Nc4cc5c(nn4)CCC5)cc32)ccc1C(C)O (stereo not drawn) [Example 381, 1-[6-[6-(6,7-dihydro-5~{H}-cyclopenta[c]pyridazin-3-ylamino)-5-fluoro-benzimidazol-1-yl]-3-(1-hydroxyethyl)-2-pyridyl]-5-methyl-pyrazole-3-carbonitrile]",55,32.7,195
"Cc1cc(C#N)nn1-c1nc(-n2cnc3cc(NC4CC(=O)N(C)C4)ccc32)ccc1C(C)O (stereo not drawn) [Example 161, 1-[3-(1-Hydroxyethyl)-6-[5-[(5-keto-1-methyl-pyrrolidin-3-yl)amino]benzimidazol-1-yl]-2-pyridyl]-5-methyl-pyrazole-3-carbonitrile]",450,181,66.1
"Cc1ccc(Nc2ccc3ncn(-c4ccc(CO)c(-n5nc(C#N)cc5C)n4)c3c2)nn1 [Example 269, 5-Methyl-1-[3-methylol-6-[6-[(6-methylpyridazin-3-yl)amino]benzimidazol-1-yl]-2-pyridyl]pyrazole-3-carbonitrile; formic acid]",151,211,1030
"COc1cc2ncn(-c3ccc([C@@H](C)O)c(-c4ccc(F)cc4OC)n3)c2cc1OC [Example 22, (R)-1-(6-(5,6-Dimethoxy-1H-benzo[d]imidazol-1-yl)-2-(4-fluoro-2-methoxyphenyl)pyridin-3-yl)ethan-1-ol]",970,849,4480
"Cc1ccc(Nc2cc3ncn(-c4ccc(C(C)O)c(-n5nc(C#N)cc5C)n4)c3cc2OCCN(C)C)nn1 (stereo not drawn) [Example 189, 1-[6-[6-[2-(Dimethylamino)ethoxy]-5-[(6-methylpyridazin-3-yl)amino]benzimidazol-1-yl]-3-(1-hydroxyethyl)-2-pyridyl]-5-methyl-pyrazole-3-carbonitrile]",186,3.9,4.7
"Cc1ccc(Nc2ccc3ncn(-c4ccc(C(C)O)c(-n5nc(C(F)(F)F)c6c5CCNC6)n4)c3c2)nn1 (stereo not drawn) [Example 98, 1-[6-[6-[(6-Methylpyridazin-3-yl)amino]benzimidazol-1-yl]-2-[3-(trifluoromethyl)-4,5,6,7-tetrahydropyrazolo[4,3-c]pyridin-1-yl]-3-pyridyl]ethanol]",5,4.2,13.4
"Cc1cc(C#N)nn1-c1nc(-n2cnc3cc(Nc4ccc(OC(F)F)nn4)ccc32)ccc1C(C)O (stereo not drawn) [Example 197, 1-[6-[5-[[6-(Difluoromethoxy)pyridazin-3-yl]amino]benzimidazol-1-yl]-3-(1-hydroxyethyl)-2-pyridyl]-5-methyl-pyrazole-3-carbonitrile]",15,2.3,0.9
"Cc1nnc(Nc2ccc3c(c2)ncn3-c2ccc(C(C)O)c(-n3nc(C#N)cc3C)n2)s1 (stereo not drawn) [Example 111, 1-[3-(1-Hydroxyethyl)-6-[5-[(5-methyl-1,3,4-thiadiazol-2-yl)amino]benzimidazol-1-yl]-2-pyridyl]-5-methyl-pyrazole-3-carbonitrile]",11,1.4,0.8
"Cc1ccc(Nc2cc3c(cc2OCCN2CCOCC2)ncn3-c2ccc(C(C)O)c(-n3nc(C#N)cc3C)n2)cn1 (stereo not drawn) [Example 294, 1-[3-(1-hydroxyethyl)-6-[6-[(6-methyl-3-pyridyl)amino]-5-(2-morpholinoethoxy)benzimidazol-1-yl]-2-pyridyl]-5-methyl-pyrazole-3-carbonitrile]",2,0.3,3
"COc1cc2ncn(-c3ccc([C@H](C)O)c(-c4ccc(F)cc4OC)n3)c2cc1OC [Example 21, (S)-1-(6-(5,6-Dimethoxy-1H-benzo[d]imidazol-1-yl)-2-(4-fluoro-2-methoxyphenyl)pyridin-3-yl)ethan-1-ol]",192,135,543
"Cc1ccc(Nc2ccc3c(c2)ncn3-c2ccc(C(C)O)c(-c3cc(C(F)(F)F)nn3C)n2)nn1 (stereo not drawn) [Example 122, 1-[6-[5-[(6-Methylpyridazin-3-yl)amino]benzimidazol-1-yl]-2-[2-methyl-5-(trifluoromethyl)pyrazol-3-yl]-3-pyridyl]ethanol]",3460,33,6.9

# — patent US20240383875A1, “Benzimidazole Pyridine Derivatives” (Hoffmann-La Roche Inc., priority 2022, published 2024)
